Laboratory results taken from patent US20040106545A1, “Compounds and methods for modulating cell adhesion” (priority 1996, published 2004).

Legend:
[1] = target: L1 (Homo sapiens, UniProt P32004); assay: Neurite outgrowth on L1 expressing 3T3 monolayers (Example 2); format: cell-based, mouse; parameters: expressed in transfected cells; host or cells: 3T3 fibroblasts (monolayer); mouse post-natal day 3 cerebellar neurons on top; conditions: 500 μg/mL
[2] = system: SKOV3 tumors; assay: Induction of apoptosis in SKOV3 tumors in nude mice (Apoptag); format: in vivo, mouse
Description: SKOV3 cells (ATCC) were grown to 70% confluence in Minimum Essential Medium (Life Technologies, Grand Island, N.Y.) supplemented with 10% Fetal Bovine Serum (Wisent, St. Bruno, Quebec) in a humidified atmosphere containing 5% CO2. Cells were then dissociated with 0.02% PBS/EDTA. Total cell count and viable cell number was determined by trypan blue stain and a hemacytometer.
Approximately 1×10^7 cells were resuspended in 400 μl saline and injected in 6-week-old CD-1 nude mice (female, Charles River) subcutaneously. After 20 days of continuous tumor growth, tumor size was about 4.0 mm. The tumor-bearing animals were then injected intraperitoneally every day with 20 mg/kg of the representative peptide modulating agent N—Ac-CHAVC-NH2 (SEQ ID NO:10) or saline, for 48 hours, 96 hours, 120 hours or 168 hours. […]
Tumor tissue was dissected and fixed in PBS with 4% paraformaldehyde for 48 hours. Specimens were then dehydrated in a series of alcohol incubations, and embedded in paraffin wax. Apoptosis was assessed using the Apoptag kit (Intergen, Purchase N.Y.) according to the manufacturer's protocol, with slight modifications. More specifically, sections were deparaffinized and re-hydrated. After a five minute wash with PBS, the slides were treated with 20 μg/ml Proteinase K in PBS for 15 minutes at room temperature. This was followed by two washes with distilled water (2 minutes each wash). […]

Sequence of L1 (P32004 20-1257): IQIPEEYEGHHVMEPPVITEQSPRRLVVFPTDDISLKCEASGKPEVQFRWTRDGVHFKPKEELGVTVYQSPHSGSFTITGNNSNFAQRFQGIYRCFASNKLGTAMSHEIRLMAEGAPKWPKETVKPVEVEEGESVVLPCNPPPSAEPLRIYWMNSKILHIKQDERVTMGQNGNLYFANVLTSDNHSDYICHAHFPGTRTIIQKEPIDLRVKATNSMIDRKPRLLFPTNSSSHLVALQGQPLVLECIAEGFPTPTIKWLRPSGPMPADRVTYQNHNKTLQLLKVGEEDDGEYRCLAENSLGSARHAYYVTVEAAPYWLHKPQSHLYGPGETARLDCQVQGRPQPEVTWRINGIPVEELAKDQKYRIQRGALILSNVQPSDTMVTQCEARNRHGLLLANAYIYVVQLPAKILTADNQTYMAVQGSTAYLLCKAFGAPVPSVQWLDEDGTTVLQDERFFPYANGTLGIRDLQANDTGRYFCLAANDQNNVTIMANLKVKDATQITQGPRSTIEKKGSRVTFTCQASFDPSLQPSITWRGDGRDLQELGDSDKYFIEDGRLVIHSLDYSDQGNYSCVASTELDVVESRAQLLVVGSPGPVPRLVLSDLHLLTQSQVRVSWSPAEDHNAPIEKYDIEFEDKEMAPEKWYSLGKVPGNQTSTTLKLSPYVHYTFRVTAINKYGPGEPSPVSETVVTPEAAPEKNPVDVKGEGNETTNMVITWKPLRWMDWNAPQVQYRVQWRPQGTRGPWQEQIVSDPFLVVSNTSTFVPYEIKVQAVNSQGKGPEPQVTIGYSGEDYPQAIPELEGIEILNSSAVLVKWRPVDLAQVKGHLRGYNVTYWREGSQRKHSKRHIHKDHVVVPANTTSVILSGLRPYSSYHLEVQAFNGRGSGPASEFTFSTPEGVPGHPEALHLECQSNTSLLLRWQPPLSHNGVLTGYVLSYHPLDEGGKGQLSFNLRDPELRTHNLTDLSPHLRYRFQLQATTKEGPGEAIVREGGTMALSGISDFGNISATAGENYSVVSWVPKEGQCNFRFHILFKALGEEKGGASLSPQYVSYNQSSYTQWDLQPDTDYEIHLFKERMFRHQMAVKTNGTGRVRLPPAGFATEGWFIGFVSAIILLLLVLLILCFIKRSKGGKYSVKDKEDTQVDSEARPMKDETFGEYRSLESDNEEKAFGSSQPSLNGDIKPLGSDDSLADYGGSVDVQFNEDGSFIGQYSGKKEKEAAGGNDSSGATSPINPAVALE

CC(=O)N[C@H]1CSSC[C@@H](C(N)=O)NC(=O)[C@H](C(C)C)NC(=O)[C@H](C)NC(=O)[C@H](Cc2c[nH]cn2)NC1=O [N—Ac—CHAVC—NH2, N-Ac-Cys-His-Ala-Val-Cys-NH2]
inhibition of neurite outgrowth on 3T3 cells expressing L1 [1]: did not inhibit neurite outgrowth | apoptotic cells in tumor sections ([2]; 20 mg/kg ip every day for 48, 96, 120 or 168 hours): show an increase in apoptotic cells with longer treatment | apoptotic cells in tumor sections ([2]; 20 mg/kg once daily for four days, sacrificed 11 days after the last treatment): extensive area of apoptotic cells within the center of the tumor
